In the test the test system is organotypic cortical co-cultures. The test is described as follows: Correlated activity (regeneration of functional connections) in organotypic cortical co-cultures on micro-electrode arrays. As to conditions: 50 nM in culture medium from 0 DIV, re-administered with each medium change up to 14 DIV; after 14 days in vitro; n=18; untreated control ca. 60% (n=28). The test is classed as cell-based, Wistar rats. The method, then:
Organotypic cortical co-cultures (350-425 μm thick from the neocortex) were prepared from three-day-old to seven-day-old Wistar rats of both sexes and were maintained in vitro using the roller tube technique; on this point see Gähwiler, Organotypic Monolayer Cultures of Nervous Tissue, J. NEUROSCIENCE METHODS, 1981, volume 4, pages 329-342. The co-cultures were allowed to grow for up to 35 days either on glass cover plates or on micro-electrode arrays in medium which contained 50% Eagle's basic medium, 25% Hanks-buffered saline solution, 25% horse serum, 33 mM D-glucose and 1 mM L-glutamine. The medium was replaced twice a week, and the co-culture explants were positioned relative to one another with varied orientations and varied distances (0 to 500 μm).
The explants cultured on micro-electrode arrays were recorded at different times for spontaneous electrical activity, at the earliest after 4 DIV (days in vitro) and at the latest 35 DIV in normal culture medium at a temperature of 35° C. Using a multi-channel recording system, the 60 micro-electrodes could be recorded simultaneously, as a result of which it was possible to test correlated activity in the co-cultures. […] The electrodes had impedances of 100 to 300 kΩ (at 1 kHz), a spacing of 500 μm and a diameter of 10 μ. The activity was recorded at 10 to 25 kHz per channel, stored, and analyzed offline in respect of latency. […]

The values that follow come from patent US20030068613A1, “Method for studying regeneration in biological material” (priority 2000, published 2003).

For the compound `C=CC[C@@H]1/C=C(\C)C[C@H](C)C[C@H](OC)[C@H]2O[C@@](O)(C(=O)C(=O)N3CCCC[C@H]3C(=O)O[C@H](/C(C)=C/[C@@H]3CC[C@@H](O)[C@H](OC)C3)[C@H](C)[C@@H](O)CC1=O)[C@H](C)C[C@@H]2OC` [FK506], the “correlated activity (share of explants showing correlation)” value is about 90%.
